The test system of test [1] is Shp1 expression in KCL22r cells. Put plainly: 5-Azacytidine treatment of Ima-resistant KCL22r cells: Shp1 expression. The test is classed as cell-based. The note with it: Ima-resistant KCL22r cell line; along with demethylation of the SHP1 promoter region. The source says:
(§1) In this study, we have first used, as model system, a couple of Ima-sensitive (KCL22s) and Ima-resistant (KCL22r) KCL22 cell lines. In these cells, Ima resistance is independent by the oncogenic Bcr/Abl activity. We have found a very low level of Shp1 (both mRNA and protein), a protein with a tumour suppressor activity, in the KCL22r resistant cells, when compared to KCL22s sensitive cells. […] Gain-of-function mutations have been described in various hemopoietic neoplasias including Juvenile Chronic Myelomonocytic Leukemia. In Ph+ cells, oncogenic Bcr/Abl protein activates Shp2 through Gab2, an adaptor protein that, once phosphorylated is able to bind SH2 domain of Shp2. Through complex interactions that may involve the two carboxy-terminal tyrosine residues (542 and 580) Shp2 is also a signal transducer of growth factor receptor. We hypothesized that, Shp1, through dephosphorylation, might modulate the activity of Shp2 and constitute an important mechanism of Ima resistance. […] The data on primary cells support the role of Shp1 in Ima resistance in patients.

In the next test the test system is KCL22r cells. As to the kind of experiment: 5-Azacytidine treatment of Ima-resistant KCL22r cells: Ima sensitivity (Ima growth inhibition). The test is classed as cell-based. The note with it: Ima-resistant KCL22r cell line after 5-AC treatment.
From the text: as §1

For the compound `Nc1ncn([C@@H]2O[C@H](CO)[C@@H](O)[C@H]2O)c(=O)n1` [5-Azacytidine], the “expression of Shp1” value in test [1] is “re-induced expression of Shp1”. Further, the “Ima sensitivity, i.e. Ima growth inhibition” value in the test with KCL22r cells is recorded as “re-established the Ima sensitivity”.
